{"source": "patent EP1671644A2", "about": "“Pharmaceutical compositions containing Lysostaphin alone or in combination with an antibiiotic for the treatment of Staphylococcal infections” (priority 1997, dated 1999)", "key": {"S. aureus Smith": {"system": "S. aureus Smith", "assay": "Acute infection model in mice (intraperitoneal infection)", "format": "in vivo", "method": "The efficacy of lysostaphin was compared to that of vancomycin in an acute infection model in mice. S. aureus Smith was cultured overnight, with moderate agitation, in Veal Infusion broth (Difco) and diluted in broth containing 5% hog gastric mucin (Difco). Male Swiss~Webster mice (Taconic Farms, Germantown, NY) weighing approximately 20 grams were infected intraperitoneally with 10^5-10^6 viable cells, approximately tenfold the inoculum that reproducibly killed all untreated animals within 48 h. There were six mice in each treatment group. Lysostaphin was administered intravenously (in 0.1 ml 5% dextrose for injection) or subcutaneously (in 0.2 ml), within 10 min of infection. Vancomycin was administered subcutaneously."}, "S. aureus strain AG461": {"system": "S. aureus strain AG461", "assay": "Time-kill experiment (Figure 1)", "format": "cell-based, Staphylococcus aureus", "conditions": "vancomycin 2 and 16 µg/ml (one and eight times MIC); three hours of contact", "method": "The bactericidal activity of lysostaphin against S. aureus was also studied by means of time-kill experiments. In one experiment of this type, S. aureus strain AG461, a methicillin-resistant clinical isolate from Genoa, Italy, was inoculated into Mueller-Hinton broth (Difco) and grown at 37°C with gentle shaking until it reached approximately 10^8 viable cells per ml (CFU/ml), as estimated from the absorbance of the culture at 600 nm. The culture was then diluted with fresh broth to approximately 10^6 CFU/ml and 5 ml aliquots were placed in several different flasks for exposure to different concentrations of antibacterial agents. Incubation was continued, with gentle shaking, at 37°C, and samples were withdrawn at intervals for determination of viable cells. Serial 10-fold dilutions of the samples were made in sterile saline (0.9% NaCl in distilled water) and duplicate 0.1 ml aliquots of appropriate dilutions were plated on Tryptic Soy agar plates (Remel) using the agar inclusion method. (In this method, the aliquot to be plated is added to 2.5 ml of top agar, which is mixed and poured onto a plate. Top agar consisted of molten Tryptic Soy agar (Difco) diluted 2-fold with Difco Tryptic Soy broth to give a final agar concentration of 0.75%, w/v.) The plates were incubated for 24-48 hours at 36°C and the colonies were counted manually. […]"}, "[1]": {"system": "methicillin-resistant S. aureus strain (MRSA 27619)", "assay": "Experimental aortic valve endocarditis in rabbits", "format": "in vivo", "conditions": "vancomycin 30 mg/kg twice daily iv, three days", "method": "Aortic valve endocarditis was established in New Zealand white rabbits weighing approximately 3 kg. Rabbits were anesthetized and the right carotid artery surgically exposed and cannulated with a polyethylene catheter which was advanced into the left ventricle of the heart. After at least 24 h, the rabbits were infected intravenously with 10^6-10^7 cells of a methicillin-resistant S. aureus strain (MRSA 27619). Twenty-four hours later, the animals were randomly assigned to different treatment groups: untreated control (9 rabbits); positive control, vancomycin 30 mg/kg twice daily (15); lysostaphin 5 mg/kg three times daily (11); lysostaphin 5 mg/kg once daily (10); lysostaphin 5 mg/kg once daily + vancomycin 30 mg/kg twice daily (11). Any rabbits whose infection was not confirmed by pre-treatment blood culture were eliminated.\nAll treatments were intravenous and were carried out for three days. The state of health of the rabbits was assessed at intervals. The rabbits were sacrificed 18 h after the last treatment. Aortic vegetations were removed and weighed and processed to determine the number of viable bacteria, expressed as log10CFU/gram. The limit of detection is 10^2 CFU/gram (log10CFU/gram=2.0). The mean titers of bacteria per gram were compared by one-way analysis of variance. The Student-Newman-Keuls test was used to adjust for multiple comparisons. […]"}, "[2]": {"system": "methicillin-resistant VISA strain of S. aureus", "assay": "Endocarditis in rabbits caused by a VISA strain", "format": "in vivo", "conditions": "vancomycin 30 mg/kg twice daily"}}, "note": "Marks after values point to notes of the source that are not given here.", "data": [{"smiles": "CN[C@H](CC(C)C)C(=O)N[C@H]1C(=O)N[C@@H](CC(N)=O)C(=O)N[C@H]2C(=O)N[C@H]3C(=O)N[C@H](C(=O)N[C@H](C(=O)O)c4cc(O)cc(O)c4-c4cc3ccc4O)[C@H](O)c3ccc(c(Cl)c3)Oc3cc2cc(c3O[C@@H]2O[C@H](CO)[C@@H](O)[C@H](O)[C@H]2O[C@H]2C[C@](C)(N)[C@H](O)[C@H](C)O2)Oc2ccc(cc2Cl)[C@H]1O", "note": "[vancomycin]", "values": [{"measurement": "% survival", "setting": "S. aureus Smith; 0.63 mg/kg sc", "result": 0, "unit": "%"}, {"measurement": "% survival", "setting": "S. aureus Smith; 1.25 mg/kg sc", "result": 83, "unit": "%"}, {"measurement": "% survival", "setting": "S. aureus Smith; 2.5 mg/kg sc", "result": 100, "unit": "%"}, {"measurement": "% survival", "setting": "S. aureus Smith; 5 mg/kg sc", "result": 100, "unit": "%"}, {"measurement": "% survival", "setting": "S. aureus Smith; Table 4 experiment, 0.63 mg/kg, route not given", "result": 0, "unit": "%"}, {"measurement": "% survival", "setting": "S. aureus Smith; Table 4 experiment, 1.25 mg/kg, route not given", "result": 83, "unit": "%"}, {"measurement": "% survival", "setting": "S. aureus Smith; Table 4 experiment, 2.5 mg/kg, route not given", "result": 100, "unit": "%"}, {"measurement": "bactericidal action", "setting": "S. aureus strain AG461", "result": "very little killing of the bacteria"}, {"measurement": "Mean log10CFU/gram of vegetation ± standard deviation", "setting": "[1]", "result": "5.91 ± 1.67^a log10CFU/gram"}, {"measurement": "Number of sterile vegetations /total animals treated", "setting": "[1]", "result": "0/15"}, {"measurement": "CFU/g vegetation", "setting": "[2]; expressed as log10 of the mean", "result": 6.95, "unit": "CFU/g vegetation"}, {"measurement": "sterile/total vegetations", "setting": "[2]", "result": "0/13"}]}]}
